Reference: publication PMC9959918 (2023)
One block for each molecule: values may come before it.

Columns and labels:
[1] = tested on: CPG-tel26 (DNA, G4) TTAGGGTTAGGGTTAGGGTTAGGGTT; test: G4-CPG affinity assay, UV; conditions: 50 mM KCl, 10% DMSO, 10% ethanol, 60 μM compound, error ±2%
[2] = tested on: CPG-c-myc (DNA, G4) TGGGGAGGGTGGGGAGGGTGGGGAAGGTGGGGA; test: G4-CPG affinity assay, UV; conditions: 50 mM KCl, 10% DMSO, 10% ethanol, 60 μM compound, error ±2%
[3] = tested on: CPG-ds27 (DNA, hairpin) CGCGAATTCGCGTTTCGCGAATTCGCG; test: G4-CPG affinity assay, UV; conditions: 50 mM KCl, 10% DMSO, 10% ethanol, 60 μM compound, error ±2%
[4] = tested on: tel26 (DNA, G4) TTAGGGTTAGGGTTAGGGTTAGGGTT; test: CD melting, 290 nm; conditions: 5 mM KCl, 5 mM KH2PO4; 5% DMSO, pH 7; 2 μM DNA, 20 μM compound (10 equiv.); Tm ± 1
[5] = tested on: Pu22T14T23 (Pu22) (DNA, G4) TGAGGGTGGGTAGGGTGGGTAA; test: CD melting, 265 nm; conditions: 5 mM KCl, 5 mM KH2PO4; 5% DMSO, pH 7; 2 μM DNA, 20 μM compound (10 equiv.); Tm ± 1
[6] = tested on: ds12 (Dickerson dodecamer) (DNA, duplex) CGCGAATTCGCG; test: CD melting, 253 nm; conditions: 5 mM KCl, 5 mM KH2PO4; 5% DMSO, pH 7; 2 μM DNA, 20 μM compound (10 equiv.); Tm ± 1
[7] = tested on: tel26 (DNA, G4) TTAGGGTTAGGGTTAGGGTTAGGGTT; test: fluorescence titration, 2 μM ligand, equivalent-sites fit; conditions: 5 mM KCl, 5 mM KH2PO4; 5% DMSO, pH 7, 20 °C
[8] = tested on: Pu22T14T23 (Pu22) (DNA, G4) TGAGGGTGGGTAGGGTGGGTAA; test: as above; conditions: 5 mM KCl, 5 mM KH2PO4; 5% DMSO, pH 7, 20 °C
[9] = tested on: ds12 (Dickerson dodecamer) (DNA, duplex) CGCGAATTCGCG; test: as above; conditions: 5 mM KCl, 5 mM KH2PO4; 5% DMSO, pH 7, 20 °C

Bound Ligand ([1]; nude CPG 8%): 8% | Bound Ligand ([2]; nude CPG 8%): 8% | Bound Ligand ([3]; nude CPG 8%): 8%
SMILES: CC1(C)C=Cc2c(ccc3c2O[C@@H]2COc4cc5c(cc4[C@@H]2C3=O)OCO5)O1

Bound Ligand ([1]; nude CPG 0%): 2% | Bound Ligand ([2]; nude CPG 0%): 1% | Bound Ligand ([3]; nude CPG 0%): 0%
SMILES: COc1cc2c(cc1OC)-c1c(OC)c(OC)cc3c1[C@H](C2)N(C)CC3

ΔTm [4]: +3 °C | ΔTm [5]: +5 °C | ΔTm [6]: +1 °C | Bound Ligand ([1]; nude CPG 0%): 67% | Bound Ligand ([2]; nude CPG 0%): 47% | Bound Ligand ([3]; nude CPG 0%): 30% | Kb [7]: (2.8 ± 1.2) × 10^6 M^−1 | Kb [8]: (0.8 ± 0.5) × 10^6 M^−1 | Kb [9]: (3.2 ± 0.4) × 10^5 M^−1
SMILES: COc1cc2c(cc1OC)-c1c3c(cc4c1[C@H](C2)N(C)CC4)OCO3

Bound Ligand ([1]; nude CPG 0%): 0% | Bound Ligand ([2]; nude CPG 0%): 0% | Bound Ligand ([3]; nude CPG 0%): 0%
SMILES: COc1cc2c(cc1OC)[C@@H]1C(=O)c3ccc4c(c3O[C@@H]1CO2)C=CC(C)(C)O4

Bound Ligand ([3]; nude CPG 21%): 4%
SMILES: COc1ccc2c(c1OC)CN1CCc3cc4c(cc3[C@@H]1C2)OCO4
